Test results from patent US10718769B2, “Compounds comprising one or more hydrophobic domains and a hydrophilic domain comprising peg moieties, useful for binding cells” (Roche Diagnostics Operations, Inc., priority 2013, dated 2020).
Where “and” joins values, the source holds several entries; their conditions need not be identical. Equal entries are not always repeated. Where two headings read alike, the source gives them in different places.

Legend:
[1] = test system: WBC; experiment: WBC recovery rate after centrifugation (stabilization of cells, Example 5); assay type: cell-based; settings: centrifugation 10 min, 300×g
Method: (§1) Centrifugation characteristics: 10 min, 300×g.
as §1
The respective left, middle and right columns per assay represent different Experimenters 1, 2 and 3. […] Centrifugation characteristics: 10 min, 300×g. Molecule: Cholesteryl-TEG-Cholesteryl-TEG-(SpacerC18)7-Fluos-Biotin-TEG.
(§2) Following molecules were tested: 1234: 5′-(Cholesteryl-TEG)2-Spacer C18-dT-Biotin-TEG-3′; 1248: 3′-(Cholesteryl-TEG)2-PEG2000-Fluos-Biotin-TEG-5′ INVERS; 1254: 3′-(Cholesteryl-TEG)2-SpacerC18-Fluos-Biotin-TEG-5′ INVERS; 1255: 3′-(Myristic acid)2-PEG2000-dT-Biotin-TEG-5′ INVERS. […] Centrifugation characteristics: 20 min, 300×g. Respective left column: 10 min incubation with molecule. Respective middle column: 1 h min incubation with molecule. Respective right column: 2 h incubation with molecule.
Following molecules were tested: 1255: 3′-(Myristic acid)2-PEG2000-dT-Biotin-TEG-5′ INVERS; 1234: 5′-(Cholesteryl-TEG)2-Spacer C18-dT-Biotin-TEG-3′; 1248: 3′-(Cholesteryl-TEG)2-PEG2000-Fluos-Biotin-TEG-5′ INVERS; 1254: 3′-(Cholesteryl-TEG)2-SpacerC18-Fluos-Biotin-TEG-5′ INVERS. […] Centrifugation characteristics: 20 min, 500×g. Respective left column: 10 min incubation with molecule. Respective middle column: 1 h min incubation with molecule. Respective right column: 3 h incubation with molecule.
as §2, with “tested: 1255: 3′-(Myristic acid)2-PEG2000-dT-Biotin-TEG-5′ INVERS;” for “tested:”, “3′-(Cholesteryl-TEG)2-SpacerC18-Fluos-Biotin-TEG-5′” for “3′-(Cholesteryl-TEG)2-SpacerC18-Fluos-Biotin-TEG-5′ INVERS; 1255: 3′-(Myristic acid)2-PEG2000-dT-Biotin-TEG-5′”, “1000×g.” for “300×g.”
The effect of compounds of the invention on stabilizing cells and on immobilization was determined.
Centrifugation characteristics: 10 min, 300×g. A: Choleseryl-TEG-Cholesteryl-TEG-(SpacerC18)7-Fluos-Biotin-TEG.
Centrifugation characteristics: 10 min, 300×g. Molecule: Cholesteryl-TEG-Cholesteryl-TEG-(SpacerC18)7-Fluos-Biotin-TEG.
Centrifugation characteristics: 20 min, 300×g.
(§3) Following molecules were tested: • 1255: 3′-(Myristic acid)2-PEG2000-dT-Biotin-TEG-5′ INVERS • 1234: 5′-(Cholesteryl-TEG)2-Spacer C18-dT-Biotin-TEG-3′ • 1248: 3′-(Cholesteryl-TEG)2-PEG2000-Fluos-Biotin-TEG-5′ INVERS • 1254: 3′-(Cholesteryl-TEG)2-SpacerC18-Fluos-Biotin-TEG-5′ INVERS

[2] = test system: white blood cells (WBCs); settings: for WBC per well: 300 000 WBCs/well
Method: Aim of this experiment: Testing of the white blood cell immobilization on a streptavidin-coated surface using different molecules of the invention. In particular, the performance of a single cholesterol-molecule and different dual-linker molecules (i.e. containing two hydrophobic moieties) was tested. In detail, immobilization of white blood cells (WBCs) on a Streptavidin-coated surface using different linker molecules was tested on a 12-well plate: 300 000 WBCs/well. This was followed by the measurement of the cell recovery rate after immobilization and washing of the cells using the Cellavista instrument (10× Nuclei Operator s9s5).

[3] = test system: Hela; experiment: Labelling of cells using compounds of the invention; assay type: cell-based; settings: * one cell stained weakly
Description: (§4) 2. Labelling of Cells Using Compounds of the Invention

[4] = test system: Jurkat cells; settings: centrifugation 20 min, 500×g; within 5.5 h incubation with molecule
Method: Respective columns from left: 1: 10 min incubation with molecule. 2: 1 h incubation with molecule. 3: 3,5 h incubation with molecule. 4: 5.5 h min incubation with molecule. Following molecules were tested: 1255: 3′-(Myristic acid)2-PEG2000-dT-Biotin-TEG-5′ INVERS. 1234: 5′-(Cholesteryl-TEG)2-Spacer C18-dT-Biotin-TEG-3′; 1248: 3′-(Cholesteryl-TEG)2-PEG2000-Fluos-Biotin-TEG-5′ INVERS; 1254: 3′-(Cholesteryl-TEG)2-SpacerC18-Fluos-Biotin-TEG-5′ INVERS. […] Centrifugation characteristics: 20 min, 500×g.
as §3
Centrifugation characteristics: 20 min, 500×g.

[5] = test system: CHO; experiment: Labelling of cells using compounds of the invention; assay type: cell-based
Description: as §4

[6] = test system: Epithelial cells; experiment: as above; assay type: cell-based
Description: as §4

[7] = test system: WBCs; experiment: as above; assay type: cell-based
Description: as §4

[8] = test system: MDA-MB468; experiment: as above; assay type: cell-based
Description: as §4

[9] = test system: U937; experiment: as above; assay type: cell-based
Description: as §4

[10] = test system: WBC (white blood cells); settings: for MW (mean WBC per well): target: 300.000 WBC
Method: 4× determination. Row A: 200 μl PBS introduced, 1 nmol of compound added thereto respectively, mixed, incubated about 30 min, washed 2×PBS, 800 μl PBS introduced, 300.000 WBC (untreated) added. Row B: 800 μl PBS introduced, 300.000 WBC (untreated) added. Row C: 10×10^6 WBC in 1 ml with 10 nmol compound of invention 10 min incubated, 800 μl PBS/Well introduced, 300.000 treated WBC respectively. The first MTP plate washed after 30 min 2× with PBS, overlayed with Höchst and incubated for 15 min.>Cellavista (Operator s9s5) measured. The second plate was measured after 90 min. The third plate was measured after 150 min.
The experiments were performed for different incubation times, as shown below:
As starting material 5′-(Cholesteryl-TEG)2-PEG2000-Fluos-Biotin_TEG-3′ INVERS
(14530 pmol/μl) (Internal Reference No.: 29.891250), and a streptavidin treated MTP (Microcoat), 12 Well plate were used.
Erythrocyte lysis was performed as follows:
EDTA-whole blood 59.423 6.400 WBC/μl (Ambulanz Roche)
lysis buffer: 100 mM NH4Cl+5 mM Hepes+0.5 mM KHCO3+0.1 mM EDTA-K
Ca 1×8 ml whole blood filled in 50 ml Falcon tube with lysis buffer, incubate at room temperature for 10 min
15 min at 250 g centrifugated, pellet resuspended by pipetting in and out in lysis buffer; filled to 50 ml with lysis buffer
15 min 250 g centrifugated, pellet resuspended with PBS, filled to 50 ml with PBS, 15 min 250 g centrifugated, filled to 50 ml with PBS
The design of the experiment on the plate is explained below (see FIG. 2):
3×12 Well MTP: Treatment of the WBC with compounds of the invention:
Row A: 200 μl PBS introduced, 1 nmol of compound added thereto respectively, mixed, incubated about 30 min, washed 2×PBS,
800 μl PBS introduced, 300.000 WBC (untreated) added.
Row B: 800 μl PBS introduced, 300.000 WBC (untreated) added.
Row C: 10×10^6 WBC in 1 ml with 10 nmol compound of invention 10 min incubated, 800 μl PBS/Well introduced, 300.000 treated WBC respectively.
The first MTP plate washed after 30 min 2× with PBS, overlaid with Höchst and incubated for 15 min.>Cellavista (Operator s9s5) measured.
The second plate was measured after 90 min.
The third plate was measured after 150 min.

[11] = Sample 1, first block of the table (r4-r12), footnote: 1 nmol/10e6 WBCs
[12] = Sample 1, second block of the table (r13-r21), compound concentration: 1 nmol/10e6 WBCs
[13] = Sample 2, compound concentration: 100 pmol/10e6 WBCs
[14] = Sample 2, compound concentration: 1 nmol/10e6 WBCs

Molecule: Biotin-PEG-Lysin-(C18)2
- WBC recovery rate after centrifugation, dependence on concentration ([1]; listed as molecule B): The higher the molecule concentration, the higher the cell recovery rate after centrifugation

Molecule: 5′-(Cholesterol-TEG)1-Doubler-dT-Biotin-3′ [29.891272]
- WBC per well [2, 11]: 147132 and 179643 and 181620
- WBC per well [2, 12]: 199973 and 220701 and 228481
- Mean (WBC per well) [2, 13]: 186316.33
- WBC per well [2, 13]: 161504 and 201424 and 196021
- Mean (WBC per well) [2, 14]: 247418.33
- WBC per well [2, 14]: 241232 and 254894 and 246129

Molecule: CCCCCCCCCCCCCCCC(=O)OC[C@H](COP(=O)(O)OCCNC(=O)CCc1ccc2n1[B-](F)(F)[N+]1=C(C)C=C(C)C1=C2)OC(=O)CCCCCCCCCCCCCCC.CCN(CC)CC [Phosphatidylethanolamine, N-(4,4-difluoro-5,7-dimethyl-4-bora-3a,4a-diaza-s-indacene-3-propionyl)-1,2-dihexadecanoyl-sn-glycero-3-phosphoethanolamine, triethylammonium salt]
- Labelling (staining) of Hela [3]: x/√ very weak

Molecule: 3′-(Cholesteryl-TEG)2-PEG2000-Fluos-Biotin-TEG-5′ INVERS [compound 1248]
- Stability of Jurkat culture cells during centrifugation [4]: stable during centrifugation processes

Molecule: CCCCCCCCCCCCC/C=C/[C@@H](O)[C@H](COP(=O)([O-])OCC[N+](C)(C)C)NC(=O)CCCCc1ccc2n1[B-](F)(F)[N+]1=C(C)C=C(C)C1=C2 [Sphingomyelin, N-(4,4-difluoro-5,7-dimethyl-4-bora-3a,4a-diaza-s-indacene-3-pentanoyl)sphingosyl phosphocholine]
- Labelling (staining) of CHO [5]: x very weak
- Labelling (staining) of Epithelial cells [6]: √
- Labelling (staining) of Hela [3]: √
- Labelling (staining) of WBCs [7]: (x)- very bad

Molecule: 5′-(Cholesteryl-TEG)2-Spacer C12-dT-Biotin_TEG-3′ INVERS [29.891253]
- WBC per well [2, 11]: 105061 and 128195 and 139678
- WBC per well [2, 12]: 218861 and 221471 and 208802
- Mean (WBC per well) [2, 13]: 187757.67
- WBC per well [2, 13]: 178919 and 197130 and 187224
- Mean (WBC per well) [2, 14]: 237052.33
- WBC per well [2, 14]: 239105 and 240632 and 231420

Molecule: Sulfo-JA133-phenylboronic acid [BMO: 15.000078]
- Labelling (staining) of Epithelial cells [6]: √
- Labelling (staining) of WBCs [7]: √ not all

Molecule: 5′-alphaTocopherolTEG-PEG2000-Fluos-3′ [BMO 29.891131]
- Labelling (staining) of Epithelial cells [6]: √
- Labelling (staining) of MDA-MB468 [8]: √
- Labelling (staining) of U937 [9]: √
- Labelling (staining) of WBCs [7]: √ not all

Molecule: 5′-(Cholesteryl-TEG)2-PEG2000-Fluos-Biotin_TEG-3′ INVERS [29.891250]
- Mean % / WBC recovery rate [%] ([10]; 30 min, WBC treated (molecule of invention + cells)): 77.28%
- MW (mean WBC per well) ([10]; 30 min, WBC treated): 231829.75
- Mean % / WBC recovery rate [%] ([10]; 30 min, Well treated (molecule of invention bound to surface)): 21.64%
- MW (mean WBC per well) ([10]; 30 min, Well treated): 64909
- Mean % / WBC recovery rate [%] ([10]; 90 min, WBC treated (molecule of invention + cells)): 83.12% and 83.1%
- MW (mean WBC per well) ([10]; 90 min, WBC treated): 249346.25
- Mean % / WBC recovery rate [%] ([10]; 90 min, Well treated (molecule of invention bound to surface)): 47.62% and 47.6%
- MW (mean WBC per well) ([10]; 90 min, Well treated): 142865
- Mean % / WBC recovery rate [%] ([10]; 120 min, WBC treated (molecule of invention + cells)): 86.23%
- MW (mean WBC per well) ([10]; 120 min, WBC treated): 258692.75
- Mean % / WBC recovery rate [%] ([10]; 120 min, Well treated (molecule of invention bound to surface)): 57.02%
- MW (mean WBC per well) ([10]; 120 min, Well treated): 171062.75

Molecule: 5′-Cholesteryl-TEG-PEG2000-Fluos-3′ [BMO 29.891132]
- Labelling (staining) of Epithelial cells [6]: √
- Labelling (staining) of MDA-MB468 [8]: √
- Labelling (staining) of U937 [9]: √
- Labelling (staining) of WBCs [7]: √ not all

Molecule: 5′-CholesterylTEG-CholesterylTEG-(SpacerC18)7-Fluos-BiotinTEG-3′ [BMO 29.891222_Ch03]
- WBC recovery rate after centrifugation, dependence on concentration [1]: The higher the molecule concentration, the higher the cell recovery rate after centrifugation
- Cell stabilization with different experimenters ([1]; Experimenters 1, 2 and 3): cell stabilization is independent on the experimenter
- WBC recovery rate after centrifugation, dependence on concentration ([1]; listed as molecule A): The higher the molecule concentration, the higher the cell recovery rate after centrifugation
